The values that follow come from patent KR20050021629A, “신규한 벤조플루오렌 디온계 화합물” (학교법인 이화학당, priority 2003, dated 2005).

Converted amounts (≈) assume the structure as drawn. Like-named read-outs stand apart in the source and are kept apart here.

Assay [1] relates to human ovarian cancer cell line (SK-OV-3) (인간 난소암 세포주(SK-OV-3)). Particulars: literature (Y. S. Kim et al. 2003); cited from earlier work.
Assay [2] concerns human central nervous system cancer cell line XF498 (인간 중추 신경계암 세포주 (XF498)). The assay is described as follows: SRB cytotoxicity test, human central nervous system cancer cell line XF498. In kind it is cell-based. A general note: In SRB staining, fixed cells bind dye roughly in proportion to their protein.
Assay [3] deals with human ovarian cancer cell line SK-OV-3 (인간 난소암 세포주 (SK-OV-3)). Description: SRB cytotoxicity test, human ovarian cancer cell line SK-OV-3. In kind it is cell-based.
For assay [4], the system named is human lung cancer cell line A549 (인간 폐암 세포주 (A549)). The assay is described as follows: SRB cytotoxicity test, human lung cancer cell line A549. In kind it is cell-based.
The subject of assay [5] is human colon cancer cell line HCT15 (인간 결장암 세포주 (HCT15)). Description: SRB cytotoxicity test, human colon cancer cell line HCT15. In kind it is cell-based.
The subject of assay [6] is human melanoma cell line SK-MEL-2 (인간 흑색종암 세포주 (SK-MEL-2)). The assay is described as follows: SRB cytotoxicity test, human melanoma cell line SK-MEL-2. In kind it is cell-based.
[7] abbreviates: XF498, XF 498, SRB assay, 48 h incubation, read-out: ED50 (the source's name).
[8] abbreviates: SK-OV-3, SRB assay, 48 h incubation, read-out: ED50 (the source's name).
Setting [9] is: A549, SRB assay, 48 h incubation, read-out: ED50 (the source's name).
[10] abbreviates: HCT 15, SRB assay, 48 h incubation, read-out: ED50 (the source's name).
[11] abbreviates: SK-MEL-2, SRB assay, 48 h incubation, read-out: ED50 (the source's name).

For the compound 2-메틸-4a,10,11-트리아자-벤조[3,2-a]플루오렌-5,6-디온, in assay [1], the “anticancer effect compared with doxorubicin” value is reported as “독소루비신보다 항암효과가 우수함”.
Take `COc1cccc2c1C(=O)c1c(O)c3c(c(O)c1C2=O)C[C@@](O)(C(=O)CO)C[C@@H]3O[C@H]1C[C@H](N)[C@H](O)[C@H](C)O1` [독소루비신, reference compound]: the IC50 in assay [2] (XF498, 48 h, read-out: ED50) was found to be 0.187 µg/mL (≈ 0.344 µM); in assay [3] (SK-OV-3, 48 h, read-out: ED50), 0.21 µg/mL (≈ 0.386 µM); in assay [4] (A549, 48 h, read-out: ED50), 0.093 µg/mL (≈ 0.171 µM); in assay [5] (HCT-15, 48 h, read-out: ED50) it was 0.19 µg/mL (≈ 0.35 µM); in assay [6] (SK-MEL-2, 48 h, read-out: ED50) it was 0.11 µg/mL (≈ 0.202 µM).
With `Cc1cccn2c3c(nc12)-c1ncccc1C(=O)C3=O` [실시예 1, 10-메틸-1,6b,11-트리아자-벤조[3,2-a]플루오렌-5,6-디온], the IC50 stood at 0.033 µg/mL (≈ 0.125 µM) in assay [2] (setting [7]); 0.073 µg/mL (≈ 0.277 µM) in assay [3] (setting [8]); 0.054 µg/mL (≈ 0.205 µM) in assay [4] (setting [9]); 0.044 µg/mL (≈ 0.167 µM) in assay [5] (setting [10]); 0.11 µg/mL (≈ 0.418 µM) in assay [6] (setting [11]).
For `Cc1cccc2nc3c(n12)C(=O)C(=O)c1cccnc1-3` [실시예 2, 7-메틸-1,6b,11-트리아자-벤조[3,2-a]플루오렌-5,6-디온], the IC50 in assay [2] (setting [7]) was found to be 0.2 µg/mL (≈ 0.76 µM); in assay [3] (setting [8]), 1.04 µg/mL (≈ 3.95 µM); in assay [4] (setting [9]) it was 0.23 µg/mL (≈ 0.874 µM); in assay [5] (setting [10]), 0.71 µg/mL (≈ 2.7 µM); in assay [6] (setting [11]), 1.08 µg/mL (≈ 4.1 µM).
In the same order, the values of `O=C1C(=O)c2c(nc3ccc(Cl)cn23)-c2ncccc21` [실시예 3, 8-클로로-1,6b,11-트리아자-벤조[3,2-a]플루오렌-5,6-디온] are 0.45 µg/mL (≈ 1.59 µM), 0.55 µg/mL (≈ 1.94 µM), 0.59 µg/mL (≈ 2.08 µM), 0.99 µg/mL (≈ 3.49 µM) and 0.65 µg/mL (≈ 2.29 µM).
In the same order, the values of `O=C1C(=O)c2c(nc3ncccn23)-c2ncccc21` [실시예 4, 1,6b,10,11-테트라아자-벤조[a]플루오렌-5,6-디온] are 0.081 µg/mL (≈ 0.324 µM), 0.061 µg/mL (≈ 0.244 µM), 0.12 µg/mL (≈ 0.48 µM), 0.077 µg/mL (≈ 0.308 µM) and 0.034 µg/mL (≈ 0.136 µM).
In the same order, the values of `O=C1C(=O)c2c(nc3cnccn23)-c2ncccc21` [실시예 5, 1,6b,9,11-테트라아자-벤조[a]플루오렌-5,6-디온] are 0.03 µg/mL (≈ 0.12 µM), 0.02 µg/mL (≈ 0.0799 µM), 0.051 µg/mL (≈ 0.204 µM), 0.047 µg/mL (≈ 0.188 µM) and 0.032 µg/mL (≈ 0.128 µM).
In the case of `O=C1C(=O)c2c(nc3ccccn23)-c2cnncc21` [실시예 6, 2,3,6b,11-테트라아자-벤조[a]플루오렌-5,6-디온], the IC50 in assay [2] (setting [7]) was 0.12 µg/mL (≈ 0.48 µM); in assay [3] (setting [8]) it was 0.2 µg/mL (≈ 0.799 µM); in assay [4] (setting [9]), 0.022 µg/mL (≈ 0.0879 µM); in assay [5] (setting [10]), 0.1 µg/mL (≈ 0.4 µM); in assay [6] (setting [11]), 0.12 µg/mL (≈ 0.48 µM).
For the compound `Cc1ccc2nc3c(n2c1)C(=O)C(=O)c1cnncc1-3` [실시예 7, 8-메틸-2,3,6b,11-테트라아자-벤조[a]플루오렌-5,6-디온], the IC50 in assay [2] (setting [7]) came out at 1.77 µg/mL (≈ 6.7 µM); in assay [3] (setting [8]), 1.01 µg/mL (≈ 3.82 µM); in assay [4] (setting [9]) it was 3.54 µg/mL (≈ 13.4 µM); in assay [5] (setting [10]), 0.92 µg/mL (≈ 3.48 µM); in assay [6] (setting [11]) it was 1.77 µg/mL (≈ 6.7 µM).
On to `COc1cc(C2c3cc4c(cc3C(OC3OC5COC(C)OC5C(O)C3O)C3COC(=O)C23)OCO4)cc(OC)c1O` (stereo not shown) [에토포시드, reference compound], for which the IC50 was found to be 1.43 µg/mL (≈ 2.43 µM) in assay [2] (XF498, 48 h, read-out: ED50); 1.84 µg/mL (≈ 3.13 µM) in assay [3] (SK-OV-3, 48 h, read-out: ED50); 0.577 µg/mL (≈ 0.98 µM) in assay [4] (A549, 48 h, read-out: ED50); 0.97 µg/mL (≈ 1.65 µM) in assay [5] (HCT-15, 48 h, read-out: ED50); 1.37 µg/mL (≈ 2.33 µM) in assay [6] (SK-MEL-2, 48 h, read-out: ED50).
